US9388162B2, “Substituted morphinans and the use thereof” (Purdue Pharma L.P., priority 2012, dated 2016)

How the values were obtained:
[1] = biological target: recombinant human kappa opioid receptor (κ) (Homo sapiens (Human), UniProt P41145); assay: κ-opioid receptor radioligand dose displacement binding assay ([3H]-U69,593); details: mean ± SEM, read-out: Binding Affinity Opioid Receptor Ki (nM) [mean ± SEM] κ
Description: Membranes from HEK-293 cells, CHO or U-2 OS cells expressing the recombinant human kappa opioid receptor (κ) were prepared by lysing cells in ice cold hypotonic buffer (2.5 mM MgCl2, 50 mM HEPES, pH 7.4) (10 mL/10 cm dish) followed by homogenization with a tissue grinder/Teflon pestle. Membranes were collected by centrifugation at 30,000×g for 15 min at 4° C. and pellets were resuspended in hypotonic buffer to a final concentration of 1-3 mg/mL. Protein concentrations were determined using the BioRad protein assay reagent with bovine serum albumen as standard. Aliquots of κ receptor membranes were stored at −80° C.
Radioligand dose displacement assays used 0.4 nM [^3H]-U69,593 (GE Healthcare, Piscataway, N.J.; 40 Ci/mmole) with 15 μg membrane protein (recombinant κ opioid receptor expressed in HEK 293 cells; in-house prep) in a final volume of 200 μl binding buffer (5% DMSO, 50 mM Trizma base, pH 7.4). Non-specific binding was determined in the presence of 10 μM unlabeled naloxone or U69,593. All reactions were performed in 96-well polypropylene plates for 1 hour at a temperature of about 25° C. Binding reactions were terminated by rapid filtration onto 96-well Unifilter GF/C filter plates (Perkin Elmer, Shelton, Conn.) presoaked in 0.5% polyethylenimine (Sigma). Harvesting was performed using a 96-well tissue harvester (Perkin Elmer, Shelton, Conn.) followed by five filtration washes with 200 μl ice-cold binding buffer. Filter plates were subsequently dried at 50° C. for 1-2 hours. Fifty μl/well scintillation cocktail (Perkin Elmer, Shelton, Conn.) was added and plates were counted in a Packard Top-Count for 1 min/well.
(§1) The following tables provide results on the efficacy of binding and activity response of exemplified Compounds of the Invention at the μ- and κ-opioid receptors. In TABLE 3, binding affinity of certain Compounds of the Invention to the μ- and κ-opioid receptors was determined as described above. In TABLE 4, activity response of certain Compounds of the Invention to the μ- and κ-opioid receptors was determined as described above for functional assays using HEK-293 cells. In TABLE 5, activity response of certain Compounds of the Invention to the μ- and κ-opioid receptors was determined as described above using U-2 OS cells.

μ-opioid receptors = μ-opioid receptors (Homo sapiens (Human), UniProt P35372); assay: μ-opioid receptor [35S]GTPγS functional assay, HEK-293 cells; format: biochemical; details: μ GTP; for EC50: read-out: Activity Response μ EC50 (nM) [mean ± SEM]; for Emax: relative to DAMGO, read-out: Activity Response μ Emax (%)
Description: [^35S]GTPγS functional assays were conducted using freshly thawed μ-receptor membranes prepared from a cell line expressing recombinant μ opioid receptor in a HEK-293, CHO or U-2 OS cell background or purchased from a commercial source (Perkin Elmer, Shelton, Conn.; or DiscovRx, Fremont, Calif.). Assay reactions were prepared by sequentially adding the following reagents to binding buffer (100 mM NaCl, 10 mM MgCl2, 20 mM HEPES, pH 7.4) on ice (final concentrations indicated): membrane protein (0.026 mg/mL), saponin ([…]), GDP ([…]) and [^35S]GTPγS (0.20 nM; Perkin Elmer, Shelton, Conn.). The prepared membrane solution (190 μl/well) was transferred to 96-shallow well polypropylene plates containing 10 μl of 20× concentrated stock solutions of the agonist [D-Ala^2, N-methyl-Phe^4 Gly-ol^5]-enkephalin (DAMGO) prepared in dimethyl sulfoxide (DMSO). Plates were incubated for 30 min at about 25° C. with shaking. Reactions were terminated by rapid filtration onto 96-well Unifilter GF/B filter plates (Perkin Elmer, Shelton, Conn.) using a 96-well tissue harvester (Perkin Elmer, Shelton, Conn.) followed by three filtration washes with 200 μl of ice-cold wash buffer (10 mM NaH2PO4, 10 mM Na2HPO4, pH 7.4). Filter plates were subsequently dried at 50° C. for 2-3 hours. BetaScint scintillation cocktail (Perkin Elmer, Shelton, Conn.) was added (50 μl/well) and plates were counted using a Packard Top-Count for 1 min/well. Data were analyzed using the sigmoidal dose-response curve fitting functions in GraphPad PRISM v. 3.0, or an in-house function for non-linear, sigmoidal dose-response curve-fitting.
μ GTP EC50 is the concentration of a compound providing 50% of the maximal response for the compound at a μ-opioid receptor.
μ GTP Emax (%) is the maximal effect elicited by a compound relative to the effect elicited by DAMGO, a standard μ agonist. Generally, the μ GTP Emax (%) value measures the efficacy of a compound to treat or prevent pain or other Conditions.
as §1

Compound: COc1ccc2c(c1)[C@]13CCN(CC4CC4)[C@H](C2)[C@]1(O)CC(CC(=O)O)(CC(=O)O)C(=O)C3 [Compound 10, 2,2′-((4bR,8aS,9R)-11-(cyclopropylmethyl)-8a-hydroxy-3-methoxy-6-oxo-6,7,8,8a,9,10-hexahydro-5H-9,4b-(epiminoethano)phenanthrene-7,7-diyl)diacetic acid]
- Ki [1]: > 20000 nM
- EC50 (μ-opioid receptors): 14700 ± 1530 nM
- Emax (μ-opioid receptors): 16 ± 2.65%

Compound: O=C(O)CC1(CC(=O)O)C[C@@]2(O)[C@H]3Cc4ccc(O)cc4[C@@]2(CCN3CC2CC2)CC1=O [Compound 12, 2,2′-((4bR,8aS,9R)-11-(cyclopropylmethyl)-3,8a-dihydroxy-6-oxo-6,7,8,8a,9,10-hexahydro-5H-9,4b-(epiminoethano)phenanthrene-7,7-diyl)diacetic acid]
- Ki [1]: 3410 ± 538 nM
- EC50 (μ-opioid receptors): > 200000 nM

Compound: COc1ccc2c(c1)[C@]13CCN(CC4CC4)[C@H](C2)[C@]1(O)C[C@H](CC(=O)N[C@@H](C)C(=O)O)C(=O)C3 [Compound 13, (S)-2-(2-((4bR,7R,8aS,9R)-11-(cyclopropylmethyl)-8a-hydroxy-3-methoxy-6-oxo-6,7,8,8a,9,10-hexahydro-5H-9,4b-(epiminoethano)phenanthren-7-yl)acetamido)propanoic acid]
- Ki [1]: > 20000 nM
- EC50 (μ-opioid receptors): 4600 ± 471 nM
- Emax (μ-opioid receptors): 66 ± 2.65%

Compound: COc1ccc2c(c1)[C@]13CCN(CC4CC4)[C@H](C2)[C@]1(O)C[C@H](CC(=O)N1CCC[C@H]1C(=O)O)C(=O)C3 [Compound 16, (S)-1-(2-((4bR,7R,8aS,9R)-11-(cyclopropylmethyl)-8a-hydroxy-3-methoxy-6-oxo-6,7,8,8a,9,10-hexahydro-5H-9,4b-(epiminoethano)phenanthren-7-yl)acetyl)pyrrolidine-2-carboxylic acid]
- Ki [1]: > 20000 nM
- EC50 (μ-opioid receptors): 6770 ± 1370 nM
- Emax (μ-opioid receptors): 28.7 ± 1.86%

Compound: COc1ccc2c(c1)[C@]13CCN(CC4CC4)[C@H](C2)[C@]1(O)C[C@H](CC(=O)N[C@@H](CC(C)C)C(=O)O)C(=O)C3 [Compound 18, (S)-2-(2-((4bR,7R,8aS,9R)-11-(cyclopropylmethyl)-8a-hydroxy-3-methoxy-6-oxo-6,7,8,8a,9,10-hexahydro-5H-9,4b-(epiminoethano)phenanthren-7-yl)acetamido)-4-methylpentanoic acid]
- Ki [1]: 15900 nM
- EC50 (μ-opioid receptors): 2750 ± 221 nM
- Emax (μ-opioid receptors): 50 ± 1.53%
